Test results: patent publication US10500304B2, “Films and methods of manufacture” (priority 2013, dated 2019)

Experiments:
[1] = In vitro release of triclosan from films; format: physicochemical; conditions: in vitro testing
[2] = test system: S. epidermidis ATCC 12228; test: Zone of inhibition (ZOI) on Mueller Hinton agar; format: cell-based; conditions: 6 mm punches or filter disk, 36° C., 16-18 hours
Experimental: (§1) Testing was performed with 4 different species of bacteria. […] S. aureus ATCC 25923; S. epidermidis ATCC 12228; Pseudomonas aeruginosa ATCC 10145; Enterobacter [NT] 29941 Glass culture tubes (VWR #:89001-480); Blank Disks, 6.35 mm diameter (VWR#: 90002-114); 6 mm Disposable Biopsy Punches (VWR#: 21909-144); Mueller Hinton agar dishes (VWR #: 100219-188); 0.5 McFarland turbidity standard (VWR #: 29447-318); dPBS (VWR #: 12001-664); Cotton swabs; Incubator; Thermometer; Bacterial hood […] Swirl the swab in this tube and when removing the swab, press it into the side of the tube above the liquid. • Inoculate Mueller-Hinton agar plates by streaking once down the middle of the plate. […] After streaking the entire plate, streak the swab around the rim of the plate. • Place filter disks/punches onto the dish. • Place in the 36° C. incubator within 15 minutes inoculating dish. • Incubate 16-18 hours. • Measure ZOI in millimeters using slide caliper (ZOI was measured a linear distance measured through the center point of the disk). FIG. 28 illustrates the minimum effective concentration and measured ZOI.

[3] = test system: Pseudomonas aeruginosa ATCC 10145; test: Zone of inhibition (ZOI) on Mueller Hinton agar; format: cell-based; conditions: 6 mm punches or filter disk, 36° C., 16-18 hours
Experimental: as §1

S. aureus ATCC 25923 = test: Zone of inhibition (ZOI) on Mueller Hinton agar; format: cell-based; conditions: 6 mm punches or filter disk, 36° C., 16-18 hours
Experimental: as §1

[4] = test system: Enterobacter cloacae ATCC 29941; test: Zone of inhibition (ZOI) on Mueller Hinton agar; format: cell-based; conditions: 6 mm punches or filter disk, 36° C., 16-18 hours
Experimental: as §1

[5] = Implantation of sleeve-covered metal plates in sheep; conditions: within 24 hours after insertion, sleeves
Experimental: In one exemplary embodiment, implants were tested by implantation in sheep. The implants were metal plates with tubular, thin (0.05-0.08 mm), transparent polymer sleeves carefully slipped over the metal plates just before they were surgically inserted and attached to the bone. […] The sleeves were comprised of a synthetic copolyester (glycolide, caprolactone, trimethylenecarbonate, lactide) with aperture holes of 1.5 mm diameter equally spaced throughout.

## Oc1cc(Cl)ccc1Oc1ccc(Cl)cc1Cl [triclosan, 2,4,4′-trichloro-2′-hydroxydiphenyl ether]
[1]
  initial burst release: minimal
  period of release from films: slowly over a to 3 weeks period

## Gentamicin [120 ug gentamicin]
[2]; 0.1-5% films data set
  Avg. ZOI (mm) S. epidermidis: 34.9 mm
[2]; 13% film tested separately
  Avg. ZOI (mm) S. epidermidis: 31.37 mm
[3]; 0.1-5% films data set
  Avg. ZOI (mm) P. aeruginosa: 26.7 mm
[3]; 13% film tested separately
  Avg. ZOI (mm) P. aeruginosa: 24.90 mm
S. aureus ATCC 25923; 0.1-5% films data set
  Avg. ZOI (mm) S. aureus: 30.5 mm
S. aureus ATCC 25923; 13% film tested separately
  Avg. ZOI (mm) S. aureus: 28.73 mm
[4]; 0.1-5% films data set
  Avg. ZOI (mm) E. cloacae: 22.4 mm
[4]; 13% film tested separately
  Avg. ZOI (mm) E. cloacae: 25.27 mm

## gentamicin
[5]
  gentamicin released into the adjacent tissue: Approximately 50%
